Test results published in US20260248927A1, “TARGETED PROTEIN DEGRADATION USING BIFUNCTIONAL COMPOUNDS THAT BIND UBIQUITIN LIGASE AND TARGET MCL-1 PROTEIN” (Captor Therapeutics S.A., priority 2022, published 2026).

Assays:
[1] = Cell viability assay (CellTiter-Glo), ARH-77; type: cell-based; settings: human, ARH-77 cells (lymphoblast-like, MCL-1 independent), ARH-77, 24 hours, 1% FBS, read-out: Average pCC50 by molecule ARH-77 (converted)
From the text: (§1) The effect of various compounds of the invention on the viability of MV4-11 and ARH-77 cell lines was investigated, using the CTG protocol described below.
(§2) MV4-11 cell lines are derived from acute myeloid leukaemia and it is described in the literature as a MCL-1 dependent cell line, as opposed to lymphoblast-like ARH-77 cell line, which is described as independent of MCL-1 (Tron A E et al. Nat Commun. 2018; 9: 5341; Caenepeel S et al. Cancer Discov. 2018 December; 8(12): 1582-1597).
(§3) Cells (MV4-11 or ARH-77) were seeded on […] in a growth medium with 1% FBS. Next, compound stocks were pre-diluted in DMSO and added directly to the cell culture media (final DMSO concentration: 0.5%). Compound concentrations used in this assay: 1/3 dilutions starting at 30 μM (9 to 12 points). After 24 hours of incubation, cell viability was evaluated using CellTiter-Glo Luminescent Cell Viability Assay (Promega, cat #G7572). The luminescence signal was measured using a CLARIOstar Plus Multi-Mode Microplate Reader (574-590 nm).
(§4) Results were normalized to DMSO control. Collected data were analyzed using GraphPad Prism to calculate pCC50 values.

[2] = biological target: [MCL-1]-[compound of formula (I)]—[CRBN/DDB1] (Homo sapiens, UniProt Q07820+Q96SW2); assay: HTRF ternary complex formation assay; type: binding; settings: hMcl-1 and CRBN, 180 min at 25° C.; read-out: HTRF ternary complex Average pEC50 by molecule (converted)
Chain of [MCL-1]-[compound of formula (I)]—[CRBN/DDB1] (Q07820 whole entry): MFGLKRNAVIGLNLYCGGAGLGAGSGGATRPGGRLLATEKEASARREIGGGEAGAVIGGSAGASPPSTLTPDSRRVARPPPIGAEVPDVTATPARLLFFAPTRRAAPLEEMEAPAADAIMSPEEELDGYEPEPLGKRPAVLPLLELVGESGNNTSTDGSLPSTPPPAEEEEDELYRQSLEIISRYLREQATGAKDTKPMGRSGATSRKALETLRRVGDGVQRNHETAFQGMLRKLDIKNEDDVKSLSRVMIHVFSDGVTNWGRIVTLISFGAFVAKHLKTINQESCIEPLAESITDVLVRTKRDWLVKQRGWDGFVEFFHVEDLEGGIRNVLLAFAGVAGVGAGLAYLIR
Chain of [MCL-1]-[compound of formula (I)]—[CRBN/DDB1] (Q96SW2 whole entry): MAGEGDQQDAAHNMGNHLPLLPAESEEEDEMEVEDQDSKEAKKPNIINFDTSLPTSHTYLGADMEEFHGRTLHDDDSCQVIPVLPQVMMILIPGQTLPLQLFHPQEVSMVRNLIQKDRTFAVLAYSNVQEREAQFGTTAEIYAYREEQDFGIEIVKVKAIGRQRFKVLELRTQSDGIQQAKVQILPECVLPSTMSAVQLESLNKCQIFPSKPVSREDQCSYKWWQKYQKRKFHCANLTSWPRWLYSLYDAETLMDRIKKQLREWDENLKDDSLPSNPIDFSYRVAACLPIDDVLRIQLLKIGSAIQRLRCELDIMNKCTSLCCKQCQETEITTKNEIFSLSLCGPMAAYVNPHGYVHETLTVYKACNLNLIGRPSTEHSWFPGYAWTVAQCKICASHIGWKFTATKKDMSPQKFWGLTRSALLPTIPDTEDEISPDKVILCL
Chain of [MCL-1]-[compound of formula (I)]—[CRBN/DDB1] (Q16531 whole entry partner): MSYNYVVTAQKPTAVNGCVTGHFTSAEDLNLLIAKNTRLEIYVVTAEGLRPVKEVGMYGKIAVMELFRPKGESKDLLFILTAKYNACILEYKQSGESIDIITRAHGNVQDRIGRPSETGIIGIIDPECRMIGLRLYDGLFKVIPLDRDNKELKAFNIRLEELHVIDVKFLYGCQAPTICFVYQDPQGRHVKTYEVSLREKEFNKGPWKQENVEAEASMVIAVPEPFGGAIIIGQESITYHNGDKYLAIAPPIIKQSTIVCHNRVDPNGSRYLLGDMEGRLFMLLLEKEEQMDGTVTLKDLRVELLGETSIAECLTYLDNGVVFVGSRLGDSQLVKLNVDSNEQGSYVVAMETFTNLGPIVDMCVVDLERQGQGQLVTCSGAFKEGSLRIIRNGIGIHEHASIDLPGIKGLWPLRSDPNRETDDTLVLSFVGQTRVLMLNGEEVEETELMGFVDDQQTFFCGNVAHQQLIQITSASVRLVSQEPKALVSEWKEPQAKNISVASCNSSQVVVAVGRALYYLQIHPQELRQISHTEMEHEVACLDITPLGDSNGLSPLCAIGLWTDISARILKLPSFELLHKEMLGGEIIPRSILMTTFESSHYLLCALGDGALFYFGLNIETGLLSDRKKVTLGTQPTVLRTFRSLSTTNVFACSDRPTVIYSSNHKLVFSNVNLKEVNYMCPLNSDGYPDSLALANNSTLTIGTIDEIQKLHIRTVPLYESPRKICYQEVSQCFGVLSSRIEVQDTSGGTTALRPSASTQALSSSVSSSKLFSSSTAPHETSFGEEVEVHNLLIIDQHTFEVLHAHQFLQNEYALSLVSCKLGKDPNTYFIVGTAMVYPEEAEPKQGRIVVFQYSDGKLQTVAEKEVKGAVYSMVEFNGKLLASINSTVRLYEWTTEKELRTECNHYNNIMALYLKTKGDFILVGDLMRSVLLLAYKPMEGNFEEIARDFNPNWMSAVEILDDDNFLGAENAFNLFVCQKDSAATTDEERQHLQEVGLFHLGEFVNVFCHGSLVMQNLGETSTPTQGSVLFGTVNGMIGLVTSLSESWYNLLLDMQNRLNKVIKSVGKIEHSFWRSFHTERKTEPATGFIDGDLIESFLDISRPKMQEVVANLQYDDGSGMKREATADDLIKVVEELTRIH
Procedure: The effect of the bifunctional compounds of the invention on the formation of a ternary complex composed of [MCL-1]-[compound of formula (I)]—[CRBN/DDB1] was investigated with HTRF ternary complex assay.
Mix of protein solution was prepared: • 48 nM hMcl-1 and 105.6 nM CRBN were prepared in PPI Europium detection buffer with 2 mM DTT. • Acceptor and donor stock solutions were diluted 100 times in PPI Europium detection buffer. Equal volumes of both reagents were mixed. Finally giving 3 nM of Streptavidin-Eu cryptate ([…]) and 6.67 nM of Anti-6×his-d2 ([…]).
5 μl of protein mix was dispensed to all wells. The tested compounds in dose-response were dispensed onto a white 384-well low volume plate (Greiner, 784075). DMSO was backfilled to all wells, resulting in a final DMSO content of 0.5%. Wells containing only DMSO served as a background. Next, 5 μl of solution with donor and acceptor was added to the wells.
The plate was sealed with transparent film and shaken using a VibroTurbulator for 60 sec at level 3. The plate was then spun down shortly (10 s, 1000 rcf) and incubated at 25° C. for 180 min.
The read-out was performed with plate reader (Pherastar, BMG Labtech) in time resolved fluorescence mode. Filterset: TR 337 665 620.
The results were analyzed as follows: • 1) an average of fluorescence for background signal was calculated and used as a negative control; • 2) raw fluorescence values for tested compounds were normalized against negative controls; • 3) bell shape curve was fitted to a gaussian distribution using a non-linear least squares Gauss-Newton algorithm; • 4) EC50 and pEC50 values were determined.

MV4-11 cells = assay: Cell viability assay (CellTiter-Glo), MV4-11; type: cell-based; settings: Homo sapiens, MV4-11, 24 hours, 1% FBS, read-out: Average pCC50 by molecule MV4-11 (converted)
From the text: as §1, §2, §3, §4

SMILES | CC50 at 24 h [1] [nM] | EC50 [2] [nM] | CC50 (MV4-11 cells) [nM]
Cc1nn(C)c(C)c1-c1c(Cl)ccc2c(CCCOc3cccc4cc(F)ccc34)c(C(=O)O)n(CCN3CCN(C(=O)COc4cc(N5CCCCC5)cc5c4CN(C4CCC(=O)NC4=O)C5=O)CC3)c12 (stereo not shown) [Compound 14, 6-Chloro-1-{2-[4-(2-{[2-(2,6-dioxopiperidin-3-yl)-1-oxo-6-(piperidin-1-yl)-2,3-dihydro-1H-isoindol-4-yl]oxy}acetyl)piperazin-1-yl]ethyl}-3-{3-[(6-fluoronaphthalen-1-yl)oxy]propyl}-7-(1,3,5-trimethyl-1H-pyrazol-4-yl)-1H-indole-2-carboxylic acid] | > 3160 | < 31.6 | < 316
Cc1cc(OCCCc2c(C(=O)O)n(CCN3CCN(CC(=O)NCc4ccc5c(c4)CN(C4CCC(=O)NC4=O)C5=O)CC3)c3c(-c4c(C)nn(C)c4C)c(Cl)ccc23)cc(C)c1Cl (stereo not shown) [Compound 27, 6-Chloro-3-[3-(4-chloro-3,5-dimethylphenoxy)propyl]-1-(2-{4-[({[2-(2,6-dioxopiperidin-3-yl)-1-oxo-2,3-dihydro-1H-isoindol-5-yl]methyl}carbamoyl)methyl]piperazin-1-yl}ethyl)-7-(1,3,5-trimethyl-1H-pyrazol-4-yl)-1H-indole-2-carboxylic acid] |  | < 100 | 
Cc1nn(C)c(C)c1-c1c(Cl)ccc2c(CCCOc3cccc4cc(F)ccc34)c(C(=O)O)n(CCN3CCC(CN4CCN(c5cc6c(cc5F)C(=O)N(C5CCC(=O)NC5=O)C6)CC4)CC3)c12 (stereo not shown) [Compound 144, 6-Chloro-1-(2-(4-((4-(2-(2,6-dioxopiperidin-3-yl)-6-fluoro-1-oxoisoindolin-5-yl)piperazin-1-yl)methyl)piperidin-1-yl)ethyl)-3-(3-((6-fluoronaphthalen-1-yl)oxy)propyl)-7-(1,3,5-trimethyl-1H-pyrazol-4-yl)-1H-indole-2-carboxylic acid] | > 3160 | < 31.6 | < 100
Cc1nc2ccc(C(=O)NCC(=O)N3CCN(CCn4c(C(=O)O)c(CCCOc5cccc6cc(F)ccc56)c5ccc(Cl)c(-c6c(C)nn(C)c6C)c54)CC3)cc2cc1C1CCC(=O)NC1=O (stereo not shown) [Compound 5, 6-Chloro-1-{2-[4-(2-{[3-(2,6-dioxopiperidin-3-yl)-2-methylquinolin-6-yl]formamido}acetyl)piperazin-1-yl]ethyl}-3-{3-[(6-fluoronaphthalen-1-yl)oxy]propyl}-7-(1,3,5-trimethyl-1H-pyrazol-4-yl)-1H-indole-2-carboxylic acid] | > 10000 | < 100 | 
Cc1nn(C)c(C)c1-c1c(Cl)ccc2c(CCCOc3cccc4cc(F)ccc34)c(C(=O)O)n(CCN3CCN(CC(=O)Nc4cccc5c4CN(C4CCC(=O)NC4=O)C5=O)CC3)c12 (stereo not shown) [Compound 29, 6-Chloro-1-{2-[4-({[2-(2,6-dioxopiperidin-3-yl)-1-oxo-2,3-dihydro-1H-isoindol-4-yl]carbamoyl}methyl)piperazin-1-yl]ethyl}-3-{3-[(6-fluoronaphthalen-1-yl)oxy]propyl}-7-(1,3,5-trimethyl-1H-pyrazol-4-yl)-1H-indole-2-carboxylic acid] | > 10000 | < 100 | 
Cc1nc2c(NCC(=O)N3CCN(CCn4c(C(=O)O)c(CCCOc5cccc6cc(F)ccc56)c5ccc(Cl)c(-c6c(C)nn(C)c6C)c54)CC3)cccc2cc1N1CCC(=O)NC1=O [Compound 146, 6-Chloro-1-(2-(4-((3-(2,4-dioxotetrahydropyrimidin-1(2H)-yl)-2-methylquinolin-8-yl)glycyl)piperazin-1-yl)ethyl)-3-(3-((6-fluoronaphthalen-1-yl)oxy)propyl)-7-(1,3,5-trimethyl-1H-pyrazol-4-yl)-1H-indole-2-carboxylic acid] |  | < 31.6 | < 100
Cc1nn(C)c(C)c1-c1c(Cl)ccc2c(CCCOc3cccc4cc(F)ccc34)c(C(=O)O)n(CCN3CCN(C(=O)c4cc5cc(C6CCC(=O)NC6=O)ccc5n4C)CC3)c12 (stereo not shown) [Compound 148, 6-Chloro-1-(2-(4-(5-(2,6-dioxopiperidin-3-yl)-1-methyl-1H-indole-2-carbonyl)piperazin-1-yl)ethyl)-3-(3-((6-fluoronaphthalen-1-yl)oxy)propyl)-7-(1,3,5-trimethyl-1H-pyrazol-4-yl)-1H-indole-2-carboxylic acid] | > 3160 | < 31.6 | < 316
CCc1cc(OCC(=O)N2CCN(CCn3c(C(=O)O)c(CCCOc4cccc5cc(F)ccc45)c4ccc(Cl)c(-c5c(C)nn(C)c5C)c43)CC2)ccc1C(=O)NC1CCC(=O)NC1=O (stereo not shown) [Compound 25, 6-Chloro-1-(2-(4-(2-(4-((2,6-dioxopiperidin-3-yl)carbamoyl)-3-ethylphenoxy)acetyl)piperazin-1-yl)ethyl)-3-(3-((6-fluoronaphthalen-1-yl)oxy)propyl)-7-(1,3,5-trimethyl-1H-pyrazol-4-yl)-1H-indole-2-carboxylic acid] | > 3160 |  | 
Cc1nn(C)c(C)c1-c1c(Cl)ccc2c(CCCOc3cccc4cc(F)ccc34)c(C(=O)O)n(CCN3CCN(C(=O)COc4cc(N)cc5c4CN(C4CCC(=O)NC4=O)C5=O)CC3)c12 (stereo not shown) [Compound 11, 1-{2-[4-(2-{[6-Amino-2-(2,6-dioxopiperidin-3-yl)-1-oxo-2,3-dihydro-1H-isoindol-4-yl]oxy}acetyl)piperazin-1-yl]ethyl}-6-chloro-3-{3-[(6-fluoronaphthalen-1-yl)oxy]propyl}-7-(1,3,5-trimethyl-1H-pyrazol-4-yl)-1H-indole-2-carboxylic acid] | > 10000 | < 316 | < 100
Cc1nc2c(C(=O)NC3CCC(=O)NC3=O)cc(OCCC(=O)N3CCN(CCn4c(C(=O)O)c(CCCOc5cccc6cc(F)ccc56)c5ccc(Cl)c(-c6c(C)nn(C)c6C)c54)CC3)cc2[nH]1 (stereo not shown) [Compound 3, 6-Chloro-1-(2-{4-[3-({4-[(2,6-dioxopiperidin-3-yl)carbamoyl]-2-methyl-1H-1,3-benzodiazol-6-yl}oxy)propanoyl]piperazin-1-yl}ethyl)-3-{3-[(6-fluoronaphthalen-1-yl)oxy]propyl}-7-(1,3,5-trimethyl-1H-pyrazol-4-yl)-1H-indole-2-carboxylic acid] | > 31600 | < 100 | < 100
Cc1nn(C)c(C)c1-c1c(Cl)ccc2c(CCCOc3cccc4cc(F)ccc34)c(C(=O)O)n(CCN3CCN(CC(=O)NCc4ccc5c(c4)CN(C4CCC(=O)NC4=O)C5=O)CC3)c12 (stereo not shown) [Compound 26, 6-Chloro-1-(2-{4-[({[2-(2,6-dioxopiperidin-3-yl)-1-oxo-2,3-dihydro-1H-isoindol-5-yl]methyl}carbamoyl)methyl]piperazin-1-yl}ethyl)-3-{3-[(6-fluoronaphthalen-1-yl)oxy]propyl}-7-(1,3,5-trimethyl-1H-pyrazol-4-yl)-1H-indole-2-carboxylic acid] | > 31600 | < 100 | 
CCc1c(OCC(=O)N2CCN(CCn3c(C(=O)O)c(CCCOc4cccc5cc(F)ccc45)c4ccc(Cl)c(-c5c(C)nn(C)c5C)c43)CC2)cccc1C(=O)NC1CCC(=O)NC1=O (stereo not shown) [Compound 24, 6-Chloro-1-{2-[4-(2-{3-[(2,6-dioxopiperidin-3-yl)carbamoyl]-2-ethylphenoxy}acetyl)piperazin-1-yl]ethyl}-3-{3-[(6-fluoronaphthalen-1-yl)oxy]propyl}-7-(1,3,5-trimethyl-1H-pyrazol-4-yl)-1H-indole-2-carboxylic acid] | > 10000 |  | 
Cc1nn(C)c(C)c1-c1c(Cl)ccc2c(CCCOc3cccc4cc(F)ccc34)c(C(=O)O)n(CCN3CCN(C(=O)COc4cc(N(C)C)cc5c4CN(C4CCC(=O)NC4=O)C5=O)CC3)c12 (stereo not shown) [Compound 13, 6-Chloro-1-{2-[4-(2-{[6-(dimethylamino)-2-(2,6-dioxopiperidin-3-yl)-1-oxo-2,3-dihydro-1H-isoindol-4-yl]oxy}acetyl)piperazin-1-yl]ethyl}-3-{3-[(6-fluoronaphthalen-1-yl)oxy]propyl}-7-(1,3,5-trimethyl-1H-pyrazol-4-yl)-1H-indole-2-carboxylic acid] | > 10000 | < 316 | 
